# Experimental data taken from PMC10956426, “Lipid-Binding Regions within PKC-Related Serine/Threonine Protein Kinase N1 (PKN1) Required for Its Regulation” (Biochemistry, 2024).
# Target: T1, PKN1-(C2), PKN1-(C2)-(342–605) (Rattus norvegicus, UniProt Q63433)
# T1 construct: predominantly trimer
# Test: intrinsic tryptophan fluorescence quenching, Scatchard
# Format: binding
# Details: 3 lipids per trimer, 20 mM phosphate pH 7.4, 25 mM NaCl, 25 °C, sonicated vesicles
# Description: intrinsic tryptophan fluorescence quenching, Scatchard on PKN1-(C2), PKN1-(C2)-(342–605)
# [1] = type I (high-affinity) site of a biphasic curve
# T1 sequence (Q63433 342-605): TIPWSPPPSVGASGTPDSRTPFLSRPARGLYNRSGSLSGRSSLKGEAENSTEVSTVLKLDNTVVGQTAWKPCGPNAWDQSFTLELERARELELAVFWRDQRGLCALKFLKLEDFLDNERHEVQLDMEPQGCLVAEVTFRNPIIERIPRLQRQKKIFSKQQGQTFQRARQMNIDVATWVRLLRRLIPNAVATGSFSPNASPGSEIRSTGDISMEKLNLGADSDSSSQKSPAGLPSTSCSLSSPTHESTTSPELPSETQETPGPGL
Substance,Kd [1] [nM],Kd (one class of sites) [nM]
cardiolipin,1000 ± 600,–
phosphatidic acid,300,–
phosphatidylcholine,–,100
phosphatidylserine,–,200
